Patent publication US6770782B1, “Process for the production of potassium hydroxy citric acid, and compositions containing the potassium hydroxy citric acid” (Sabinsa Corporation, priority 1995, dated 2004)
Entries after “also recorded” stand apart in the source; their conditions may differ.

How the values were obtained:
citrate lyase = biological target: T1, citrate lyase (Homo sapiens, UniProt P53396); details: cited from earlier work
T1 sequence (P53396 1-1101): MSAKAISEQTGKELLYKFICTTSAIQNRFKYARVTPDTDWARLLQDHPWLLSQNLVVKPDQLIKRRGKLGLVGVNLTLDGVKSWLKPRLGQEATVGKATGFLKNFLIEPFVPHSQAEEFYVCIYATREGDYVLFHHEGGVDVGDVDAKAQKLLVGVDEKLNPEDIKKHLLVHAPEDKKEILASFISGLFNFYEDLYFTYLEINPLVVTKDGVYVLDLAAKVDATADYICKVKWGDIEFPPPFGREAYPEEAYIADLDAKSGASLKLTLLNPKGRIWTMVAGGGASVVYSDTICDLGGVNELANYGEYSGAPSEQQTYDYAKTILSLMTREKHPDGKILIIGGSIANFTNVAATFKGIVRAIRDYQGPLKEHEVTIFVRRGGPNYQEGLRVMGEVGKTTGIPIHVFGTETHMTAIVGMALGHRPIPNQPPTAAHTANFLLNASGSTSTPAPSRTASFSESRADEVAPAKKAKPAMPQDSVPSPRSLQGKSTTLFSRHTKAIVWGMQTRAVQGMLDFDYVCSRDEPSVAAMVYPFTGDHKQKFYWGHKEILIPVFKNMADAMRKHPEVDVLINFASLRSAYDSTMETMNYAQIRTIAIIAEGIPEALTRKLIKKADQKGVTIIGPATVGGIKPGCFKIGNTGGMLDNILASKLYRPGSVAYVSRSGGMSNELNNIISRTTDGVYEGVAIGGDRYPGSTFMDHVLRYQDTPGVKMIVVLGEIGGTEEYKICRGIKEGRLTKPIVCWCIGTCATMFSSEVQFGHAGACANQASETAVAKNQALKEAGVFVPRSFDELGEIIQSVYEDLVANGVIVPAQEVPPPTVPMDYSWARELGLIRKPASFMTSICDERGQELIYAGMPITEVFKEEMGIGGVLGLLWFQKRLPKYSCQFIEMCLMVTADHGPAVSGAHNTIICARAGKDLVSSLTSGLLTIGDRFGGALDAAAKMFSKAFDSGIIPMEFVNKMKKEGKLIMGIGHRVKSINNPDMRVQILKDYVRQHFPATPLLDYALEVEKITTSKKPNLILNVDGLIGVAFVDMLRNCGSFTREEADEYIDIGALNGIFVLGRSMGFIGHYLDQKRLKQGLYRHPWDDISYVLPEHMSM

[1] = free acid converts to lactone; cited from earlier work
[2] = rats, cited from earlier work
[3] = system: gluconeogenesis in rat liver; details: HCA-treated rats; cited from earlier work
[4] = in vivo; cited from earlier work
[5] = stability of the product in solid state and in aqueous solution; type: physicochemical
Description: The stability of the product was evaluated in solid state and in aqueous solution in temperature and humidity conditions as specified below. The following parameters of the product were considered: physical appearance, specific rotation, HCA content by HPLC, lactone content by HPLC. […]
b) 37°±2° C. and 75%±2 relative humidity c) 45°±2° C. and 75%±2 relative humidity
2. In solution form (5% in water)

[6] = solubility (product specification); type: physicochemical

Molecule: O=C1C[C@@](O)(C(=O)O)[C@@H](C(=O)O)O1 [HCA in lactone form, hydroxy citric acid lactone]
- inhibiting the citrate lyase (citrate lyase; lactone form): inactive, or less active
- stability of the form [1]: stable

Molecule: O=C(O)CC(O)(C(=O)O)C(O)C(=O)O (centres unmarked) [HCA, hydroxycitric acid]
- Ki (citrate lyase; competitive inhibition, read-out: Ki, competitive inhibitor of citrate lyase): 150 nM
- affinity of the enzyme for HCA versus affinity for citric acid (citrate lyase; relative to citric acid): over a hundred times greater
- stability of the form [1]: not stable
- less weight gained than the controls ([2]; 80 day study period): 78%
- net reduction in food consumption ([2]; 80 day study period): 4%
- food consumption suppressed ([2]; HCA 1% or more of the diet): ≥ 10%
- rate of gluconeogenesis from lactate or alanine [3]: approximately doubled
- brain uptake [4]: negligible

Molecule: potassium hydroxy citrate [CITRIN®-K]
- stable under normal storage conditions ([5]; extrapolated from 90 day stress results): about 5 years
- stable under stress conditions ([5]; higher temperature and higher humidity, solid state and 5% in water): ≥ 90 days
- Solubility ([6]; citrate): Soluble in water, acids and aqueous; also recorded: alcohols. Insoluble in solvents like
- Solubility ([6]; listed as potassium hydroxy citrate): water soluble
